Source: patent publication US7642277B2, “Non-nucleoside reverse transcriptase inhibitors” (Boehringer Ingelheim International GmbH, priority 2002, dated 2010)
Where two headings read alike, the source gives them in different places.

Key:
HIV-1 (wild type) = test: P24 cellular assay (EC50), data identified with * in Table 9, wild type; assay type: cell-based
Description: P24 Cellular Assay (EC50) (Data Identified with * in Table 9).
The p24 assay is as described in WO 01/96338, the contents of which are herein incorporated by reference.
The results are listed in Table 9 as IC50(nM) and EC50 (nM).
(§1) Table legend: A=>100; B=100-50; C=<50; NT=not tested

[1] = biological target: T1, HIV-1 RT resistant mutant K103N/Y181C (Human immunodeficiency virus type 1 group M subtype B, UniProt P04585, K690N/Y768C); test: Reverse transcriptase (RT) enzymatic assay (IC50), PicoGreen fluorescence, resistant mutant; assay type: biochemical
T1 construct: The reverse transcriptase (RT) enzyme assay has been adapted to a 96-well microtiter plate format

[2] = biological target: T2, HIV-1 RT enzyme (wild type) (Human immunodeficiency virus type 1 group M subtype B, UniProt P04585); test: Reverse transcriptase (RT) enzymatic assay (IC50), PicoGreen fluorescence, wild type; assay type: biochemical
T2 construct: The reverse transcriptase (RT) enzyme assay has been adapted to a 96-well microtiter plate format
Procedure, shortened: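 Enzyme at ≈10 nM in 50 mM Tris/HCl pH 7.8 with 60 mM NaCl, 2 mM MgCl2, 6 mM DTT, 2 mM GSH, 0.02% Chaps; 15 min preincubation with compound at room temperature, then substrate added and run 50 min at 37 °C. EDTA quench; product DNA read by PicoGreen fluorescence.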

[3] = system: HIV-1 resistant mutant K103N/Y181C in C8166 LTRluc cells; test: C8166 HIV-1 luciferase assay (EC50), resistant mutant; assay type: cell-based; conditions: Human immunodeficiency virus 1, C8166, read-out: EC50 K103N/Y181C
Description: C8166 HIV-1 Luciferase Assay (EC50)
Plasmid: pGL3 Basic LTR/TAR #12
C8166 cells are a human T-lymphotrophic virus type 1 immortalized but nonexpressing line of cord blood lymphocytes and are highly permissive to HIV-1 infection. The reporter cells were made by electroporating C8166 cells with pGL3 Basic LTR/TAR and then selecting positive clones with blasticidine. The clone C8166-LTRluc #A8-F5-G7 was selected by 3 consecutive rounds of limiting dilution under blasticidine selection.
Media: Complete media consisting of: RPMI 1640+10% FBS+10^−5 M
β-mercaptoethanol+10 μg/ml gentamycin. Cultures are maintained in complete media with 5 μg/ml blasticidine, however, selection is removed for the assay.
Luciferase Assay Protocol
Eleven serial dilutions of 2.5× are made at 8× desired final concentration in a 1 ml deep well titer plate (96 wells). The 12th well contains complete media with no inhibitor and serves as the positive control. All samples contain the same concentration of DMSO (≦0.1% DMSO). A 25 μl aliquot of inhibitor is added, to triplicate wells, of a 96 well tissue culture treated clear view black microtiter plate (Corning Costar catalogue # 3904). The last row is reserved for uninfected C8166 LTRluc cells to serve as the background blank control and the first row is media alone.
Count C8166 LTRluc cells and place in a minimal volume of complete RPMI 1640 in a tissue culture flask (ex. 30×10^6 cells in 10 ml media/25 cm^2 flask). […] Incubate cells for 1.5 hours at 37° C. on a rotating rack in a 5% CO2 incubator. Resuspend cells in complete RPMI to give a final concentration of 25,000-cells/175 μl. Add 175 μl of cell mix to wells of 96 well microtiter plate containing 25 μl 8× inhibitors. Add 25,000 uninfected C8166-LTRluc cells/well in 200 μl complete RPMI to last row for background control. Incubate cells at 37° C. in 5% CO2 incubator for 3 days.
Add 50 μl Steady Glo (luciferase substrate T1/2=5 hours Promega catalogue # E2520) to each well of the 96 well plate. Determine the relative light units (RLU) of luciferase using the BMG LUMlstar Galaxy luminometer. Plates are read from the bottom for 2 seconds per well with a gain of 240.
The level of inhibition (% inhibition) of each well containing inhibitor was calculated with the following equation: […]
The calculated % inhibition values were then used to determine EC50, slope factor (n) and maximum inhibition (Imax) by the non-linear regression routine NLIN procedure of SAS using the following equation:
as §1

[4] = system: HIV-1 (wild type) in C8166 LTRluc cells; test: C8166 HIV-1 luciferase assay (EC50), wild type; assay type: cell-based; conditions: Human immunodeficiency virus 1, C8166 HIV-1 luciferase assay (no *)
Procedure, shortened: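 C8166 cells carrying an HIV-1 LTR-driven luciferase reporter, infected at moi 0.005 for 1.5 h, then cultured 3 days at 37 °C with 11-point 2.5-fold inhibitor dilutions (≤0.1% DMSO) in triplicate, 25,000 cells/well. Luminescence gives % inhibition; EC50, slope and Imax from non-linear regression.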

[5] = RT enzymatic assay, wild type, read-out: IC50 WT

## Clc1ccccc1[C@@H]1C[C@H]1CSc1nnnn1-c1cccc2ccccc12 (relative stereo) [Entry 316, trans-5-{{{2-(2-Chlorophenyl)cyclopropyl}methyl}thio}-1-(1-naphthalenyl)-1H-tetrazole]
HIV-1 (wild type); Human immunodeficiency virus 1
  EC50: < 0.05 µM
[1]
  IC50: > 0.1 µM
[2]
  IC50: 0.05 to 0.1 µM

## CN(C)c1ccc(-n2nnnc2SCC(=O)Nc2ccccc2[N+](=O)[O-])c2ccccc12 [Entry 102]
HIV-1 (wild type); Human immunodeficiency virus 1
  EC50: < 0.05 µM
[1]
  IC50: > 0.1 µM
[2]
  IC50: < 0.05 µM

## O=C(CSc1nnnn1-c1ccccc1F)Nc1ccccc1[N+](=O)[O-] [Entry 113]
HIV-1 (wild type); Human immunodeficiency virus 1
  EC50: < 0.05 µM
[1]
  IC50: > 0.1 µM
[2]
  IC50: < 0.05 µM

## CSc1ccccc1-n1nnnc1SCC(=O)Nc1ccccc1[N+](=O)[O-] [Entry 116]
HIV-1 (wild type); Human immunodeficiency virus 1
  EC50: < 0.05 µM
[1]
  IC50: > 0.1 µM
[2]
  IC50: < 0.05 µM

## Cc1ccc(-n2nnnc2SCC(=O)Nc2ccccc2[N+](=O)[O-])c(Br)c1 [Entry 130]
HIV-1 (wild type); Human immunodeficiency virus 1
  EC50: < 0.05 µM
[1]
  IC50: > 0.1 µM
[2]
  IC50: < 0.05 µM

## Cc1cccc(Cl)c1-n1nnnc1SCC(=O)Nc1ccccc1[N+](=O)[O-] [Entry 139]
HIV-1 (wild type); Human immunodeficiency virus 1
  EC50: < 0.05 µM
[1]
  IC50: > 0.1 µM
[2]
  IC50: < 0.05 µM

## O=C(CSc1nnnn1-c1cccc2ccccc12)Nc1ccccc1Br [Entry 209]
HIV-1 (wild type); Human immunodeficiency virus 1
  EC50: > 0.1 µM
[2]
  IC50: < 0.05 µM

## COC(=O)c1ccc(NC(=O)CSc2nnnn2-c2cccc3ccccc23)c(Cl)c1 [Entry 235]
HIV-1 (wild type); Human immunodeficiency virus 1
  EC50: < 0.05 µM
[1]
  IC50: > 0.1 µM
[2]
  IC50: < 0.05 µM

## O=C(COc1nnnn1-c1cccc2ccccc12)Nc1ccccc1[N+](=O)[O-] [Entry 302]
HIV-1 (wild type); Human immunodeficiency virus 1
  EC50: 0.05 to 0.1 µM

## S=C(CSc1nnnn1-c1cccc2ccccc12)Nc1ccccc1Cl [Entry 308]
HIV-1 (wild type); Human immunodeficiency virus 1
  EC50: 0.05 to 0.1 µM
[2]
  IC50: > 0.1 µM

## OC(CCSc1nnnn1-c1cccc2ccccc12)c1ccccc1Cl (centres unmarked) [Entry 317, 5-{{3-(2-Chlorophenyl)-3-hydroxypropyl}thio}-1-(1-naphthalenyl)-1H-tetrazole]
HIV-1 (wild type); Human immunodeficiency virus 1
  EC50: < 0.05 µM
[1]
  IC50: > 0.1 µM
[2]
  IC50: 0.05 to 0.1 µM

## OC(CSc1nnnn1-c1cccc2ccccc12)Cc1ccccc1Cl (centres unmarked) [Entry 318, 5-{{3-(2-Chlorophenyl)-2-hydroxypropyl}thio}-1-(1-naphthalenyl)-1H-tetrazole]
HIV-1 (wild type); Human immunodeficiency virus 1
  EC50: < 0.05 µM
[1]
  IC50: > 0.1 µM
[2]
  IC50: 0.05 to 0.1 µM

## OC(CNc1ccccc1Cl)CSc1nnnn1-c1cccc2ccccc12 (centres unmarked) [Entry 330, 5-{{3-{(2-Chlorophenyl)amino}-2-hydroxypropyl}thio}-1-(1-naphthalenyl)-1H-tetrazole]
HIV-1 (wild type); Human immunodeficiency virus 1
  EC50: < 0.05 µM
[1]
  IC50: > 0.1 µM
[2]
  IC50: 0.05 to 0.1 µM

## O=C(CSc1nc(-c2cccc3ccccc23)c[nH]1)Nc1ccccc1[N+](=O)[O-] [Entry 401, 2-{{4-(1-Naphthalenyl)-1H-imidazol-2-yl}thio}-N-(2-nitrophenyl)acetamide]
HIV-1 (wild type)
  EC50: < 0.05 µM

## O=C(COc1ccccc1-c1cccc2ccccc12)Nc1ccccc1[N+](=O)[O-] [Entry 409]
HIV-1 (wild type); Human immunodeficiency virus 1
  EC50: > 0.1 µM
[2]; [5]
  IC50: > 0.1 µM

## O=C(CSc1nnnn1-c1ccc(I)cc1Cl)Nc1ccccc1Cl [Entry 706]
[3]
  EC50: > 0.1 µM
[4]
  EC50: < 0.05 µM
[1]
  IC50: > 0.1 µM
[2]; [5]
  IC50: < 0.05 µM

## CCc1ccc(-n2nnnc2SCC(=O)Nc2ccccc2Cl)c(Cl)c1 [Entry 707]
[3]
  EC50: > 0.1 µM
[4]
  EC50: < 0.05 µM
[1]
  IC50: > 0.1 µM
[2]; [5]
  IC50: < 0.05 µM

## C=CCc1ccc(-n2nnnc2SCC(=O)Nc2ccccc2Cl)c(Cl)c1 [Entry 708]
[3]
  EC50: > 0.1 µM
[4]
  EC50: < 0.05 µM
[1]
  IC50: > 0.1 µM
[2]; [5]
  IC50: < 0.05 µM

## CC(C)=CCc1ccc(-n2nnnc2SCC(=O)Nc2ccccc2Cl)c(Cl)c1 [Entry 709]
[3]
  EC50: > 0.1 µM
[4]
  EC50: > 0.1 µM
[1]
  IC50: > 0.1 µM
[2]; [5]
  IC50: < 0.05 µM

## CC(C)(C)c1ccc(-n2nnnc2SCC(=O)Nc2ccncc2Cl)c(Cl)c1 [Entry 801]
[3]
  EC50: < 0.05 µM
[4]
  EC50: < 0.05 µM
[1]
  IC50: < 0.05 µM
[2]; [5]
  IC50: < 0.05 µM

## Cc1ccc(NC(=O)CSc2nnnn2-c2ccc(C(C)(C)C)cc2Cl)c(Cl)n1 [Entry 802]
[3]
  EC50: 0.05 to 0.1 µM
[4]
  EC50: < 0.05 µM
[1]
  IC50: > 0.1 µM
[2]; [5]
  IC50: < 0.05 µM
